Assay results reported in US20230390319A1, “INTERFERON GENE STIMULATOR COMPOSITION COMPRISING INDOLIZINE DERIVATIVE AS ACTIVE INGREDIENT” (AJOU UNIVERSITY INDUSTRY-ACADEMIC COOPERATION FOUNDATION, priority 2020, published 2023).
Where two headings read alike, the source gives them in different places.

Experiments:
ISRE reporter signal = test: ISRE luciferase reporter assay, THP-1 cells co-treated with compound and cGAMP; assay type: cell-based, Human
Method in brief: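 STING-competent THP-1 cells were co-treated with compound plus cGAMP (1 μg/ml) for 24 h. ISRE-driven luciferase in the culture supernatant was read by QUANTI-Luc luminescence. Signal was normalized to DMSO control and compared against cGAMP-alone treatment.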

STING KO cell line = test: ISRE reporter assay in THP-1 STING KO cell line; assay type: cell-based, Human; details: co-treatment with cGAMP, FIG. 1
Experimental: Human monocytic THP-1 wild-type (WT) and STING knockout (KO) cell lines were obtained from InvivoGen. Cells were cultured in 1×RPMI 1640 medium containing 10% fetal bovine serum (FBS, Hyclone), 2.05 mM L-glutamine (Hyclone) and 1% penicillin (Corning) in a humidified incubator at 37° C. under 5% CO2.
To confirm immune responses, THP-1 cells were placed in 384-well plates (Grenier), and treated with each compound and cGAMP (1 μg/ml), and after 24 hours, ISRE activity was analyzed. QUANTI-Luc assay (InvivoGen) was performed using the cell culture supernatant to confirm the luciferase reporter gene signal. Fluorescent signals were measured using a TECAN micro plate reader SPARK, and the results were normalized to DMSO control.

human IFN-β and IP-10 = test: ELISA of cytokine levels in THP-1 cell supernatants; assay type: cell-based; details: FIG. 3
Experimental: Cytokine levels were determined by ELISA analysis. THP-1 cells were placed in a 96-well U bottom plate and tested after 24 hours of treatment with each compound and cGAMP (1 μg/ml). After culturing, cell supernatants were collected and human IFN-β and IP-10 levels were determined by ELISA analysis.

[1] = tested on: IFNB, CXCL10, IFIT3, ISG15, IRF7 and OAS1; test: Gene expression analysis by real-time quantitative PCR in THP-1 cells; assay type: cell-based, Human; details: with cGAMP (1 μg/ml), 6 hours, FIG. 4
Experimental: To confirm gene expression, THP-1 cells were placed in a 24-well plate (SPL) and treated with the compound of the present invention and cGAMP (1 μg/ml) for 6 hours. After culturing, RNA was extracted from the cells using NucleoSpin RNA Plus (MN). mRNA expression levels of IFNB, CXCL10, IFIT3, ISG15, IRF7 and OAS1 were measured by real-time qPCR (CFX96 Real-Time PCR Detection System, Bio-Rad) using IQ SYBR Green Supermix (Bio-Rad). GAPDH was used as a housekeeping gene to normalize cytokine mRNA levels.

STING = test: Activity comparison with STING pathway-activating therapeutic agent MV658; assay type: cell-based; details: compared with ENPP inhibitor MV658, FIG. 6
[2] = PK profiles after IV and PO administration to BALB/c mice; assay type: in vivo; details: BALB/c, mouse, blood; for concentration at 0.5 h: 0.50 h; for AUC(0-t): read-out: AUClast AUC(0-t); for C0: read-out: C0; for Cmax: read-out: Cmax; for MRT inf: read-out: MRTINF_obs MRT(0-∞); for MRT last: read-out: MRTlast MRT(0-t)
Excerpt: The pharmacokinetics and oral bioavailability of Compound 42 were investigated in mice following single intravenous (IV) injection and oral administration (PO).

[3] = iv, 5 mg/kg, IV 5 mg/kg, individual animals 101-103, read-out: concentration in blood
[4] = iv, 5 mg/kg, IV 5 mg/kg, mean, read-out: concentration in blood, Mean IV
[5] = iv, 5 mg/kg, IV 5.0 mg/kg, individual animals
[6] = iv, 5 mg/kg, IV 5.0 mg/kg, mean n=3
[7] = po, 20 mg/kg, PO 20 mg/kg, individual animals 201-203, read-out: concentration in blood
[8] = po, 20 mg/kg, PO 20 mg/kg, mean, read-out: concentration in blood, Mean PO

## CC(=O)c1ccc(-c2cc(C(=O)c3ccc(C(F)(F)F)cc3)n3ccccc23)cc1 [Compound 42]
ISRE reporter signal; THP-1 WT, co-treatment with cGAMP, FIG. 1
  ISRE reporter effect in WT cell line: increased effect
ISRE reporter signal; THP-1 cells, 20 μM of each compound, co-treated with cGAMP (1 μg/ml), 24 hours
  Normalized RU (relative unit of ISRE reporter signal): 9.32
ISRE reporter signal; co-administered with cGAMP, among 86 indolizine derivatives
  efficacy in ISRE reporter assay: highest efficacy
STING KO cell line
  ISRE reporter effect in STING KO cell line: no effect
Human IFN-β and IP-10; co-treatment with cGAMP compared to cGAMP alone, concentration-dependent
  cytokine secretion (IFN-β, IP-10): increased cytokine secretion very effectively
Human IFN-β and IP-10; treatment with Compound 42 alone
  immune response, compound alone: induced no immune response
[1]
  cGAMP-induced expression of interferon-stimulated genes (IFN-beta, IP-10, ISG15, IRF7, IFIT3, OAS1): significantly increased
STING
  degree of STING-dependent immune response activation: better activity
[2]; 20 mg/kg, PO administration of 20 mpk
  bioavailability: ~18%
[2]; [3]
  concentration at 0.083 h: 2590 ng/mL
  concentration at 0.25 h: 1520 ng/mL
  concentration at 0.5 h: 803 ng/mL
  concentration at 1 h: 379 ng/mL
  concentration at 4 h: 97.9 ng/mL
  concentration at 24 h: 29.2 ng/mL
[2]; [4]
  concentration at 0.083 h: 2750 ng/mL
  concentration at 0.25 h: 1420 ng/mL
  concentration at 0.5 h: 820 ng/mL
  concentration at 1 h: 350 ng/mL
  concentration at 4 h: 107 ng/mL
  concentration at 24 h: 34.9 ng/mL
[2]; iv, 5 mg/kg, IV 5.0 mg/kg, individual animals, read-out: AUCINF_obs AUC(0-∞)
  AUC(0-inf): 3420 ng·h/mL
[2]; [5]
  AUC(0-t): 3160 ng·h/mL
  C0: 3380 ng/mL
  Cmax: 2590 ng/mL
  MRT inf: 6.07 h
  MRT last: 3.93 h
[2]; iv, 5 mg/kg, IV 5.0 mg/kg, individual animals, read-out: Cl_obs Cl (converted)
  clearance: 24.4 mL/min/kg
[2]; iv, 5 mg/kg, IV 5.0 mg/kg, individual animals, read-out: HL_Lambda_z T1/2 (converted)
  half-life: 6.03 h
[2]; iv, 5 mg/kg, IV 5.0 mg/kg, individual animals, read-out: Vss_obs Vss
  Vd: 8.88 L/kg
[2]; iv, 5 mg/kg, IV 5.0 mg/kg, individual animals, read-out: Vz_obs Vz
  Vd: 12.7 L/kg
[2]; iv, 5 mg/kg, IV 5.0 mg/kg, mean n=3, read-out: AUCINF_obs AUC(0-∞)
  AUC(0-inf): 3700 ng·h/mL
[2]; [6]
  AUC(0-t): 3300 ng·h/mL
  C0: 3830 ng/mL
  Cmax: 2750 ng/mL
  MRT inf: 7.6 h
  MRT last: 4.27 h
[2]; iv, 5 mg/kg, IV 5.0 mg/kg, mean n=3, read-out: Cl_obs Cl (converted)
  clearance: 22.7 mL/min/kg
[2]; iv, 5 mg/kg, IV 5.0 mg/kg, mean n=3, read-out: HL_Lambda_z T1/2 (converted)
  half-life: 7.76 h
[2]; iv, 5 mg/kg, IV 5.0 mg/kg, mean n=3, read-out: Vss_obs Vss
  Vd: 10.2 L/kg
[2]; iv, 5 mg/kg, IV 5.0 mg/kg, mean n=3, read-out: Vz_obs Vz
  Vd: 15 L/kg
[2]; iv, 5 mg/kg, IV administration of 5 mg/kg (mpk), read-out: AUC∞
  AUC(0-inf): 3700 ng·h/mL
[2]; iv, 5 mg/kg, IV administration of 5 mg/kg (mpk)
  Cmax: 2750 ng/mL
[2]; iv, 5 mg/kg, IV administration of 5 mg/kg (mpk), read-out: half-life (converted)
  half-life: ~7.76 h
[2]; iv, 5 mg/kg, IV administration, read-out: mean blood clearance
  clearance: 22.7 mL/min/kg
[2]; iv, 5 mg/kg, IV administration, read-out: mean volume of distribution at steady state (Vss)
  Vd: 10.2 L/kg
[2]; [7]
  concentration at 0.25 h: 75.3 ng/mL
  concentration at 0.5 h: 139 ng/mL
  concentration at 1 h: 211 ng/mL
[2]; [8]
  concentration at 0.25 h: 89.9 ng/mL
  concentration at 0.5 h: 156 ng/mL
  concentration at 1 h: 225 ng/mL
